The target in one experiment is HDAC1 (Homo sapiens, UniProt Q13547). Nature of the experiment: HDAC biochemical activity measurement (fluorescent substrate deacetylation).
The next experiment deals with T1, HDAC8 (Homo sapiens, UniProt Q9BY41).
T1 sequence (Q9BY41 1-377): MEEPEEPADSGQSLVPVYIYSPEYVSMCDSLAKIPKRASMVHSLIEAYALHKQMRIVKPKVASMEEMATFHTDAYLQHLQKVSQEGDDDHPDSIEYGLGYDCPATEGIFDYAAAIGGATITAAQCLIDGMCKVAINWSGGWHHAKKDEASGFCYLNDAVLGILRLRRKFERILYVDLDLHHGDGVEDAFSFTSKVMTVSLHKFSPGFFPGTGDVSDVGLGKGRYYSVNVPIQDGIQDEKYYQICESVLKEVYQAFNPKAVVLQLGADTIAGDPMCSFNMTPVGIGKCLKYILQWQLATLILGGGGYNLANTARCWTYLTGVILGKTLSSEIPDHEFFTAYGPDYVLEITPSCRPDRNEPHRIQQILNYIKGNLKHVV
Described as above. The following applies: 37° C. 30 minutes.

The target of a further experiment is HDAC3 (Homo sapiens, UniProt O15379). The description is as above.
Sequence of HDAC3 (O15379 whole entry, species assumed): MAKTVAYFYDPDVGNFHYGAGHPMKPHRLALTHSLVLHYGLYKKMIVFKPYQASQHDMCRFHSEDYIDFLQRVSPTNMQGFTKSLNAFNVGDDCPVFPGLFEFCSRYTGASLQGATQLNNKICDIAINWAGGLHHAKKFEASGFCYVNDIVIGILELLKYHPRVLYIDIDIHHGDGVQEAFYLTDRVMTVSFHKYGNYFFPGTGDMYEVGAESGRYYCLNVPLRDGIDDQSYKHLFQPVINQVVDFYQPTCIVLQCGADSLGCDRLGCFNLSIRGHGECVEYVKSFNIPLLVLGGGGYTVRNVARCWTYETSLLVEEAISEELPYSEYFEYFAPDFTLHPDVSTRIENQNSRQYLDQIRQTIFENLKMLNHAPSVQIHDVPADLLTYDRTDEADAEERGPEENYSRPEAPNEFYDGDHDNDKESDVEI
Sequence of HDAC3 (Q9Y618 395-489 partner limits assumed, species assumed): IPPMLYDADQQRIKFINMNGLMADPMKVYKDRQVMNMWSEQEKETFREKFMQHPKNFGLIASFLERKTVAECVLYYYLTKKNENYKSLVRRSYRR
Experiment [1] deals with HT1080 (human fibrosarcoma cells). In words: MTT cancer cell growth inhibition. In kind it is cell-based. The following applies: Homo sapiens, HT-1080, 72 h, MTT. In short, it runs like this:
(§1)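 GI50 values come from viability measured by MTT reduction at 570 nm. Plated overnight at 1500 cells per well, cultures received drug in three parallel wells across 10^−5–10^−10 M final and were incubated 72 h at 37° C. under 5% CO2 before MTT for 4 h.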

For experiment [2], the system named is KBM-5 (human chronic myelogenous leukemia). In words: MTT cancer cell growth inhibition. In kind it is cell-based. As to conditions: Homo sapiens, KBM5, 72 h, MTT, 72 hours incubation, KBM-5 cells; read-out: GI50 KBM-5. A digest of the protocol:
as §1

In experiment [3] the test system is Hela (human cervical cancer cells). Nature of the experiment: MTT cancer cell growth inhibition. In kind it is cell-based. As to conditions: Homo sapiens, HeLa, 72 h, MTT. In short, it runs like this: as §1
For experiment [4], the system named is SGC-7901 (human gastric cancer cells). Nature of the experiment: MTT cancer cell growth inhibition. In kind it is cell-based. The following applies: Homo sapiens, SGC-7901, 72 h, MTT, 72 hours incubation, SGC-7901 cells; read-out: GI50 SGC-7901. A digest of the protocol: as §1
The test system of experiment [5] is N-87 (human gastric cancer cells). In words: MTT cancer cell growth inhibition. It counts as cell-based. The following applies: Homo sapiens, 72 h, MTT, 72 hours incubation, N-87 cells; read-out: GI50 N-87. A digest of the protocol: as §1
The subject of experiment [6] is KBM5-T315I (human chronic myelogenous leukemia). In words: MTT cancer cell growth inhibition. It counts as cell-based. As to conditions: Homo sapiens, 72 h, MTT, 72 hours incubation, KBM5-T315I cells; read-out: GI50 KBM5-T315I. A digest of the protocol: as §1
The subject of experiment [7] is Huh-7 (human hepatoma cells). In words: MTT cancer cell growth inhibition. In kind it is cell-based. As to conditions: Homo sapiens, Huh-7, 72 h, MTT, 72 hours incubation, Huh-7 cells; read-out: GI50 Huh-7. A digest of the protocol:
as §1

Experiment [8] relates to MDA-MB-231 (breast cancer cells). Nature of the experiment: MTT cancer cell growth inhibition. It counts as cell-based. The following applies: Homo sapiens, MDA-MB-231, 72 h, read-out: GI50 MDA-MB-231, MTT, 72 hours incubation, MDA-MB-231 cells. A digest of the protocol: as §1
Experiment [9] relates to BGC-823 (human gastric cancer cells). In words: MTT cancer cell growth inhibition. As to conditions: Homo sapiens, BGC-823, 72 h, MTT. In kind it is cell-based. A digest of the protocol: as §1
A further experiment deals with T2, HDAC7 (Homo sapiens, UniProt Q8WUI4).
T2 sequence (Q8WUI4 1-952): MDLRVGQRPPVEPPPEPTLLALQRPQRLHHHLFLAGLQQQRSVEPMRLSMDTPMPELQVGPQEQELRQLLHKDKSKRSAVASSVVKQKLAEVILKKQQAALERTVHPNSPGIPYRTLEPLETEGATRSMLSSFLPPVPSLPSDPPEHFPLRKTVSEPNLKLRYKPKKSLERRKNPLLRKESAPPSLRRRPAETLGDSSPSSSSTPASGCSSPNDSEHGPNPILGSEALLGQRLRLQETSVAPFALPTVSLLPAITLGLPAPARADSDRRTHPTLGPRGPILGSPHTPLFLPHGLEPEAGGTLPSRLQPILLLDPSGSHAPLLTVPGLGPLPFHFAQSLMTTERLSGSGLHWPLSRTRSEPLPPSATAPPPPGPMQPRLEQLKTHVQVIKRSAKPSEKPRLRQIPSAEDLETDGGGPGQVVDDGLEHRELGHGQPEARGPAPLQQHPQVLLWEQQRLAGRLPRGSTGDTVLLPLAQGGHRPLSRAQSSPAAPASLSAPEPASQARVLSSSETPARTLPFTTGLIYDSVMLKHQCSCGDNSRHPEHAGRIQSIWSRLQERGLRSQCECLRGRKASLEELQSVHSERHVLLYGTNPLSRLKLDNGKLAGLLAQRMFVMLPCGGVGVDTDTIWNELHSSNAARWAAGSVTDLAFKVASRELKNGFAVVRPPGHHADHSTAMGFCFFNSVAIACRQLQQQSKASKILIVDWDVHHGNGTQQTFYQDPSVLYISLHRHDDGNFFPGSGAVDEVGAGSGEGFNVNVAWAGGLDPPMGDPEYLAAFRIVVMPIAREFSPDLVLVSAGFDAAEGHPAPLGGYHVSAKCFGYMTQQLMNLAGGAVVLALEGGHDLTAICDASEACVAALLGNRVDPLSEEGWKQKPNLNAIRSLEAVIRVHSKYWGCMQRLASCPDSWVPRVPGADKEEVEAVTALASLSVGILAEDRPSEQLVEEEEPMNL
In words: HDAC biochemical activity measurement (fluorescent substrate deacetylation). The following applies: HDAC7; 37° C. 30 minutes.

[10] abbreviates: HDAC1, 37° C. 30 minutes, read-out: IC50 HDAC1.
Where [11] appears, read: read-out: IC50 HDAC3, HDAC3, 37° C. 30 minutes.
[12] abbreviates: 72 hours incubation, read-out: GI50 HT1.
The mark [13] stands for this setting: 72 hours incubation, read-out: GI50 Hela.
Setting [14] is: 72 hours incubation, read-out: GI50 BG.
Where [15] appears, read: Table 2, read-out: IC50 HDAC1, a (compounds of the present invention).
Where [16] appears, read: HT1080 cells, 72 hours incubation, read-out: GI50 HT1.
Setting [17] is: 72 hours, present invention, read-out: GI50 HT1080, a.
Setting [18] is: 72 hours, present invention, read-out: GI50 Hela, a.
[19] abbreviates: BGC-823 cells, 72 hours incubation, read-out: GI50 BG.
Where [20] appears, read: 72 hours, present invention, read-out: GI50 BGC823, a.
The mark [21] stands for this setting: Hela cells, 72 hours incubation, read-out: GI50 Hela.

Like-named read-outs stand apart in the source and are kept apart here.
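Throughout, for IC50 HDAC1, C (six-membered ring with substituents): fluorogenic acetyl-lysine substrate (20 µM) deacetylated by HDAC1, then developer releases fluorophore read at 360 nm excitation and 460 nm emission, inhibitor incubated 30 min at 37 °C.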
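Throughout, for IC50 HDAC1, a (compounds of the present invention): fluorogenic acetyl-lysine substrate (20 µM) deacetylated by HDAC1, then developer releases fluorophore read at 360 nm excitation and 460 nm emission, inhibitor incubated 30 min at 37 °C.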
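Throughout, for IC50 HDAC1: fluorogenic acetyl-lysine substrate (20 µM) deacetylated by HDAC1, then developer releases fluorophore read at 360 nm excitation and 460 nm emission, inhibitor incubated 30 min at 37 °C.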
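Throughout, for IC50 HDAC7: fluorogenic deacetylation assay using acetyl-lysine substrate at 20 µM, enzyme and compound incubated 30 min at 37 °C, then developer added, fluorescence read at 360/460 nm.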

Sequence of HDAC1 (Q13547 whole entry, species assumed): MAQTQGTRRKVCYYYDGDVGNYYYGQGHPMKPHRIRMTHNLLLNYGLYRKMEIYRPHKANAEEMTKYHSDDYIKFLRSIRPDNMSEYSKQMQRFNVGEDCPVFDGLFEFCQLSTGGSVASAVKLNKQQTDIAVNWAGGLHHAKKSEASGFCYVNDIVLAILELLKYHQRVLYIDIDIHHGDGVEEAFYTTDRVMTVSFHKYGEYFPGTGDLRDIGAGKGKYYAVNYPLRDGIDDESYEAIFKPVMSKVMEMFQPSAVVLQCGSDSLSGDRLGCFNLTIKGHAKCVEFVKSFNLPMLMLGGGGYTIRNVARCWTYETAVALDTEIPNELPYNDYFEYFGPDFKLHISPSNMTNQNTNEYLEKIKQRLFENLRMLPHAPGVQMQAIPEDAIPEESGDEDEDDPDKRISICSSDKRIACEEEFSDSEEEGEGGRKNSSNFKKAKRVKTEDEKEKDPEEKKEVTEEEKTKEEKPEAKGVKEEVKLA
Experimental for HDAC1: The chemical activity of the compound is determined according to the degree of deacetylation inhibition of the HDAC enzyme. This experiment measured the degree of deacetylation related to tumor proliferation and metastasis of HDAC1, HDAC2, HDAC3, HDAC8, HDAC11 five subtypes HDAC enzymes. After the substrate containing an acetylated lysine side chain and HDAC enzyme are labeled with a fluorescent label, the fluorescent substrate is de acetyl. The fluorescent labeled substrate is cleaved by the enzyme, and the fluorescent substance is released, which generates 460 nm emission light under the excitation of 360 nm light.
HDAC substrate was diluted with reaction buffer to 200M (reaction concentration of 20M), the HDAC enzyme was diluted to the appropriate concentration, then added different concentrations of the test compounds and acted at 37° C. 30 minutes, and then added the same volume of 2-times concentration substrate developing solution (developer), incubated at room temperature for 15 minutes.

Broadly, the IC50 is the concentration needed to halve the response being measured. One may read the GI50 as the concentration at which growth is held to half of that of the control. In the case of `C/C=C1\NC(=O)c2cc(F)cc(n2)CNC(=O)C[C@@H](/C=C/CCSC=O)OC(=O)[C@H](C(C)C)NC1=O` [Compound 52], the IC50 at HDAC1 (setting [10]) worked out at 45 nM; on HDAC1 (Table 3, column C, read-out: IC50 HDAC1, C (six-membered ring with substituents)), 45 nM; at HDAC8, 53 nM; at HDAC3 (setting [11]), 38 nM. Further, the GI50 in [1] (setting [12]) is 90 nM; in experiment [2] it was 88 nM; in experiment [3] (setting [13]), 80 nM; in experiment [4], 51 nM; in experiment [5] it was 53 nM; in experiment [6] it was 67 nM. In addition, the results for the GI50 in [7], in experiment [8] and in [9] (setting [14]) were 31 nM, 31 nM and 50 nM, respectively. In addition, the “IC50 HDAC7” value against HDAC7 is reported as “no activity”.
On to `C=C1NC(=O)c2cccc(n2)CNC(=O)C[C@@H](/C=C/CCSC(=O)CCCCCCC)OC(=O)[C@H](C(C)C)NC1=O` [Compound 244], for which the IC50 at HDAC1 (setting [10]) was 92 nM; on HDAC1 (setting [15]) it was less than 100 nM; on HDAC8, 89 nM; on HDAC3 (setting [11]) it was 32 nM. Besides, the GI50 in experiment [1] (setting [16]) was found to be 760 nM; in experiment [1] (setting [17]), 760 nM; in [2] it was 23 nM; in [3] (setting [18]), 8 nM; in experiment [4], 36 nM; in [5] it was 83 nM. In addition, the GI50 amounted to 12 nM in experiment [6]; 92 nM in experiment [7]; 35 nM in experiment [8]; 390 nM in experiment [9] (setting [19]); 390 nM in [9] (setting [20]). Moreover, the “IC50 HDAC7” value against HDAC7 was “no activity”.
In the case of `C/C=C1\NC(=O)c2cccc(n2)CNC(=O)C[C@@H](/C=C/CCS)OC(=O)[C@@H](C)NC1=O` [Compound 145], the IC50 turned out to be 51 nM at HDAC1 (setting [10]), 29 nM at HDAC8 and 26 nM at HDAC3. The GI50 in experiment [1] (setting [12]) was determined as 100 nM; in experiment [2], 8 nM; in experiment [3] (setting [13]), 40 nM; in experiment [4], 18 nM; in [5], 31 nM; in experiment [6], 31 nM. Moreover, the results for the GI50 in experiment [7], in experiment [8] and in experiment [9] (setting [14]) were 58 nM, 41 nM and 60 nM, respectively. At HDAC7, the “IC50 HDAC7” value is recorded as “no activity”.
`C/C=C1\NC(=O)c2cccc(n2)CNC(=O)C[C@@H](/C=C/CCSC(=O)CCCCCCC)OC(=O)[C@H](CC(C)C)NC1=O` [Compound 241]: the IC50 at HDAC1 (setting [10]) was 28 nM; on HDAC1 (setting [15]), less than 30 nM; against HDAC8 it was 33 nM; against HDAC3, 62 nM. Moreover, the GI50 worked out at 30 nM in experiment [1] (setting [16]); 34 nM in [1] (setting [17]); 71 nM in [2]; 11 nM in [3] (setting [21]); 11 nM in experiment [3] (setting [18]); 63 nM in experiment [4]. Also, the GI50 turned out to be 57 nM in [5]; 82 nM in [6]; 64 nM in experiment [7]; 29 nM in experiment [8]; 100 nM in experiment [9] (setting [19]); 100 nM in experiment [9] (setting [20]). In addition, at HDAC7, the “IC50 HDAC7” value is reported as “no activity”.
As for `C/C=C1\NC(=O)c2cc(SC)cc(n2)CNC(=O)C[C@@H](/C=C/CCSC(C)=O)OC(=O)[C@H](CC)NC1=O` [Compound 178], the IC50 at HDAC1 (setting [10]) worked out at 91 nM; at HDAC8 it was 36 nM; against HDAC3 it was 35 nM. Further, the GI50 in [1] (setting [16]) worked out at 20 nM; in experiment [2] it was 93 nM; in [3] (setting [21]), 60 nM; in experiment [4] it was 76 nM; in [5] it was 55 nM; in experiment [6] it was 22 nM. In addition, the GI50 in experiment [7] amounted to 42 nM; in experiment [8], 26 nM; in experiment [9] (setting [19]) it was 60 nM. Moreover, the “IC50 HDAC7” value against HDAC7 was “no activity”.
In the case of `C/C=C1\NC(=O)c2nc(ccc2SC)CNC(=O)C[C@@H](/C=C/CCSC(=O)CCCCCCC)OC(=O)[C@H](CC)NC1=O` [Compound 171], the results for the IC50 at HDAC1 (setting [10]), against HDAC8 and at HDAC3 were 68 nM, 35 nM and 18 nM, respectively. In addition, the GI50 in experiment [1] (setting [16]) stood at 40 nM; in experiment [2] it was 33 nM; in experiment [3] (setting [21]), 50 nM; in experiment [4], 28 nM; in experiment [5], 39 nM; in experiment [6], 68 nM. Moreover, the GI50 was determined as 53 nM in experiment [7], 65 nM in experiment [8] and 70 nM in experiment [9] (setting [19]). Further, at HDAC7, the “IC50 HDAC7” value was “no activity”.
For `C=C1NC(=O)c2cc(SC)cc(n2)CNC(=O)C[C@@H](/C=C/CCSC(C)=O)OC(=O)[C@H](C(C)C)NC1=O` [Compound 205], the IC50 on HDAC1 (setting [10]) was determined as 91 nM; against HDAC8 it was 62 nM; on HDAC3, 38 nM. Moreover, the GI50 in experiment [1] (setting [16]) turned out to be 10 nM; in experiment [2] it was 15 nM; in experiment [3] (setting [21]) it was 70 nM; in [4] it was 59 nM; in experiment [5] it was 49 nM; in experiment [6], 27 nM. The figures for the concentration for 50% growth inhibition (GI50) in experiment [7], in experiment [8] and in [9] (setting [19]) were 47 nM, 39 nM and 50 nM, respectively. Further, the “IC50 HDAC7” value against HDAC7 is recorded as “no activity”.

Values taken from patent publication US10065990B2, “Cyclic peptide compound, and preparation method, pharmaceutical composition and use thereof” (HANGZHOU GUANYU BIO-MEDICAL CO., LTD, priority 2013, dated 2018).
